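Method: 48-hour compound exposure of cells in 96-well plates, five concentrations, linear interpolation of endpoints. GI50: concentration for 50% inhibition of growth. Definition used: TGI = concentration required for complete inhibition of growth.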
Tests used:
Assay in all cases: NCI anticancer screen, dose series, 48 h
786-0 renal = system: 786-0 renal
A498 renal = system: A498 renal
A549 NSCLC = system: A549 NSCLC
ACHN renal = system: ACHN renal
BT-549 breast = system: BT-549 breast
CAKI-1 renal = system: CAKI-1 renal
CCRF-CEM leukemia = system: CCRF-CEM leukemia
COLO 205 colon = system: COLO 205 colon
DU-145 prostate = system: DU-145 prostate
EKVX NSCLC = system: EKVX NSCLC
HCC-2998 colon = system: HCC-2998 colon
HCT-116 colon = system: HCT-116 colon
HCT-15 colon = system: HCT-15 colon
HOP-62 NSCLC = system: HOP-62 NSCLC
HOP-92 NSCLC = system: HOP-92 NSCLC
HS 578T breast = system: HS 578T breast
HT29 colon = system: HT29 colon
IGROV1 ovarian = system: IGROV1 ovarian
K-562 leukemia = system: K-562 leukemia
KM12 colon = system: KM12 colon
LOX IMVI melanoma = system: LOX IMVI melanoma
M14 melanoma = system: M14 melanoma
MALME-3M melanoma = system: MALME-3M melanoma
MCF7 breast = system: MCF7 breast
MDA-MB-231 breast = system: MDA-MB-231 breast
MDA-MB-435 = system: MDA-MB-435
MOLT-4 leukemia = system: MOLT-4 leukemia
NCI-H226 lung = system: NCI-H226 lung
NCI-H460 lung = system: NCI-H460 lung
NCI-H522 lung = system: NCI-H522 lung
NCI/ADR-RES ovarian = system: NCI/ADR-RES ovarian
OVCAR-3 ovarian = system: OVCAR-3 ovarian
OVCAR-4 ovarian = system: OVCAR-4 ovarian
OVCAR-5 ovarian = system: OVCAR-5 ovarian
OVCAR-8 ovarian = system: OVCAR-8 ovarian
PC-3 prostate = system: PC-3 prostate
RPMI-8226 leukemia = system: RPMI-8226 leukemia
RXF 393 renal = system: RXF 393 renal
SF-268 CNS = system: SF-268 CNS
SF-295 CNS = system: SF-295 CNS
SF-539 CNS = system: SF-539 CNS
SK-MEL-2 melanoma = system: SK-MEL-2 melanoma
SK-MEL-28 melanoma = system: SK-MEL-28 melanoma
SK-MEL-5 melanoma = system: SK-MEL-5 melanoma
SK-OV-3 ovarian = system: SK-OV-3 ovarian
SN12C renal = system: SN12C renal
SNB-19 CNS = system: SNB-19 CNS
SR leukemia = system: SR leukemia
SW-620 colon = system: SW-620 colon
T-47D breast = system: T-47D breast
TK-10 renal = system: TK-10 renal
U251 CNS = system: U251 CNS
UACC-257 melanoma = system: UACC-257 melanoma
UACC-62 melanoma = system: UACC-62 melanoma
UO-31 renal = system: UO-31 renal

Compound: Cc1c(-c2ccc(O)c(O)c2)oc(=O)c2c(O)cc(O)cc12
- GI50 (786-0 renal): 14.4 µM
- TGI (786-0 renal): > 100 µM
- GI50 (A498 renal): 20.7 µM
- TGI (A498 renal): 56.8 µM
- GI50 (A549 NSCLC): 19.4 µM
- TGI (A549 NSCLC): > 100 µM
- GI50 (ACHN renal): 21.3 µM
- TGI (ACHN renal): > 100 µM
- GI50 (BT-549 breast): 6.78 µM
- TGI (BT-549 breast): 43.2 µM
- GI50 (CAKI-1 renal): 11.3 µM
- TGI (CAKI-1 renal): 46.5 µM
- GI50 (CCRF-CEM leukemia): 2.83 µM
- TGI (CCRF-CEM leukemia): > 100 µM
- GI50 (COLO 205 colon): 67.4 µM
- TGI (COLO 205 colon): > 100 µM
- GI50 (DU-145 prostate): 28.8 µM
- TGI (DU-145 prostate): > 100 µM
- GI50 (EKVX NSCLC): 15.7 µM
- TGI (EKVX NSCLC): 63.9 µM
- GI50 (HCC-2998 colon): 31.5 µM
- TGI (HCC-2998 colon): 88.6 µM
- GI50 (HCT-116 colon): 14 µM
- TGI (HCT-116 colon): > 100 µM
- GI50 (HCT-15 colon): 9.66 µM
- TGI (HCT-15 colon): > 100 µM
- GI50 (HOP-62 NSCLC): 18.2 µM
- TGI (HOP-62 NSCLC): 61.5 µM
- GI50 (HOP-92 NSCLC): 17.2 µM
- TGI (HOP-92 NSCLC): > 100 µM
- GI50 (HS 578T breast): 9.69 µM
- TGI (HS 578T breast): 91.9 µM
- GI50 (HT29 colon): 54.1 µM
- TGI (HT29 colon): > 100 µM
- GI50 (IGROV1 ovarian): 2.3 µM
- TGI (IGROV1 ovarian): 6.34 µM
- GI50 (K-562 leukemia): 19.5 µM
- TGI (K-562 leukemia): > 100 µM
- GI50 (KM12 colon): 12.2 µM
- TGI (KM12 colon): 54.7 µM
- GI50 (LOX IMVI melanoma): 13.1 µM
- TGI (LOX IMVI melanoma): > 100 µM
- GI50 (M14 melanoma): 8.07 µM
- TGI (M14 melanoma): 68.3 µM
- GI50 (MALME-3M melanoma): 1.16 µM
- TGI (MALME-3M melanoma): 10.3 µM
- GI50 (MCF7 breast): 39.1 µM
- TGI (MCF7 breast): > 100 µM
- GI50 (MDA-MB-231 breast): 86.8 µM
- TGI (MDA-MB-231 breast): > 100 µM
- GI50 (MDA-MB-435): 2.17 µM
- TGI (MDA-MB-435): 6.14 µM
- GI50 (MOLT-4 leukemia): 42.8 µM
- TGI (MOLT-4 leukemia): > 100 µM
- GI50 (NCI-H226 lung): 21.3 µM
- TGI (NCI-H226 lung): > 100 µM
- GI50 (NCI-H460 lung): 12.1 µM
- TGI (NCI-H460 lung): > 100 µM
- GI50 (NCI-H522 lung): 5.08 µM
- TGI (NCI-H522 lung): > 100 µM
- GI50 (NCI/ADR-RES ovarian): 14.1 µM
- TGI (NCI/ADR-RES ovarian): > 100 µM
- GI50 (OVCAR-3 ovarian): 11.1 µM
- TGI (OVCAR-3 ovarian): 57.8 µM
- GI50 (OVCAR-4 ovarian): 46.5 µM
- TGI (OVCAR-4 ovarian): > 100 µM
- GI50 (OVCAR-5 ovarian): 42.9 µM
- TGI (OVCAR-5 ovarian): > 100 µM
- GI50 (OVCAR-8 ovarian): 17.9 µM
- TGI (OVCAR-8 ovarian): 90 µM
- GI50 (PC-3 prostate): 29.5 µM
- TGI (PC-3 prostate): > 100 µM
- GI50 (RPMI-8226 leukemia): 7.69 µM
- TGI (RPMI-8226 leukemia): 45.3 µM
- GI50 (RXF 393 renal): 49.8 µM
- TGI (RXF 393 renal): > 100 µM
- GI50 (SF-268 CNS): 11.1 µM
- TGI (SF-268 CNS): > 100 µM
- GI50 (SF-295 CNS): 7.52 µM
- TGI (SF-295 CNS): 28.9 µM
- GI50 (SF-539 CNS): 13.2 µM
- TGI (SF-539 CNS): 63.7 µM
- GI50 (SK-MEL-2 melanoma): 26 µM
- TGI (SK-MEL-2 melanoma): > 100 µM
- GI50 (SK-MEL-28 melanoma): 19.8 µM
- TGI (SK-MEL-28 melanoma): > 100 µM
- GI50 (SK-MEL-5 melanoma): 6.59 µM
- TGI (SK-MEL-5 melanoma): 30.8 µM
- GI50 (SK-OV-3 ovarian): 62.7 µM
- TGI (SK-OV-3 ovarian): > 100 µM
- GI50 (SN12C renal): 14.5 µM
- TGI (SN12C renal): 59.1 µM
- GI50 (SNB-19 CNS): 45.6 µM
- TGI (SNB-19 CNS): > 100 µM
- GI50 (SR leukemia): 4.52 µM
- TGI (SR leukemia): > 100 µM
- GI50 (SW-620 colon): 4.92 µM
- TGI (SW-620 colon): > 100 µM
- GI50 (T-47D breast): 88.7 µM
- TGI (T-47D breast): > 100 µM
- GI50 (TK-10 renal): 7.97 µM
- TGI (TK-10 renal): 36 µM
- GI50 (U251 CNS): 9.67 µM
- TGI (U251 CNS): > 100 µM
- GI50 (UACC-257 melanoma): 14.4 µM
- TGI (UACC-257 melanoma): 53.3 µM
- GI50 (UACC-62 melanoma): 8.45 µM
- TGI (UACC-62 melanoma): 45.1 µM
- GI50 (UO-31 renal): 6.9 µM
- TGI (UO-31 renal): > 100 µM

From PubChem BioAssay (NCI)
